Laboratory results taken from patent US8318973B2, “Functionalized sinapic acid and methyl sinapate” (Bezwada Biomedical, LLC, priority 2005, dated 2012).

Experiment: In vitro hydrolysis of functionalized phenolics in pH 7.4 buffer at reflux
Type: physicochemical
Conditions: 500 mg compound in 50 mL pH 7.4 buffer, reflux temperature (100° C.), monitored by TLC
Protocol: In Vitro Hydrolysis of Functionalized Phenolics
A few selected compounds were examined for the rate of hydrolysis by conducting in vitro hydrolysis studies at reflux temperature (100° C.). For each experiment, 500 mg of a functionalized compound and 50 mL of pH 7.4 buffer solution (purchased from Aldrich chemical company) were charged into a 100 mL round bottom flask fitted with a condenser and the contents were refluxed. In vitro hydrolysis of the functionalized phenolic was monitored by thin layer chromatography (TLC) using corresponding starting material (original amino acid) as a control. In vitro hydrolysis was continued at reflux until the functionalized molecule hydrolyzed to the starting compound.

| Structure (SMILES) | time in which the functionalized compound was hydrolyzed to the starting compound |
| --- | --- |
| COC(=O)COC(=O)C(C)c1ccc2cc(OCC(=O)OC)ccc2c1 (stereo not shown) [Example 92, 2-(6-Methoxycarbonylmethoxy-naphthalen-2-yl)-propionic acid Methoxy Carbonyl methyl ester] | four |
| COC(=O)COC(=O)COc1ccc2cc(C(C)C(=O)OCC(=O)OC)ccc2c1 (stereo not shown) [Example 90, 2-(6-Methoxycarbonylmethoxycarbonylmethoxy-naphthalen-2-yl)-propionic acid Methoxy Carbonylmethyl ester] | four |
| COC(=O)COC(=O)COc1ccc(-c2coc3cc(OCC(=O)OCC(=O)OC)ccc3c2=O)cc1 [Example 98, [4-(7-Methoxycarbonylmethoxycarbonylmethoxy-4-oxo-4H-chromen-3-yl)-phenoxy]-acetic acid methoxycarbonylmethyl ester] | ten |
| COC(=O)C(C)OC(=O)COc1ccc(OCC(=O)OC(C)C(=O)OC)cc1 (stereo not shown) [Example 85, 2-{2-[4-(1-Methoxycarbonyl-ethoxycarbonylmethoxy)-phenoxy]-acetoxy}-propionic acid methyl ester] | two |
| COC(=O)COC(=O)COc1ccc(N)cc1 [Example 96, (4-Amino-phenoxy)-acetic acid methoxycarbonylmethyl ester] | three |
| COC(=O)COC(=O)COc1ccc(OCC(=O)OCC(=O)OC)cc1 [Example 84, (4-Methoxycarbonylmethoxycarbonylmethoxy-phenoxy)-acetic acid methoxycarbonyl methyl ester] | one |

The next lines start with the values.

| time in which the functionalized compound was hydrolyzed to the starting compound | Structure (SMILES) |
| --- | --- |
| eight | COC(=O)COC(=O)c1ccccc1OCC(=O)OC [Example 79, 2-Methoxycarbonylmethoxy-benzoic acid methoxycarbonylmethyl ester] |
| 26.5 h | COC(=O)COC(=O)COc1ccc(C(=O)OCC(=O)OC)cc1 [Example 77, 4-Methoxycarbonylmethoxycarbonylmethoxy-benzoic acid methoxycarbonyl methyl ester] |
| two | COC(=O)COC(=O)COc1ccccc1C(=O)OCC(=O)OC [Example 81, 2-Methoxycarbonylmethoxycarbonylmethoxy-benzoic acid methoxycarbonyl methyl ester] |
| 33.0 h | COC(=O)COC(=O)c1ccc(OCC(=O)OC)cc1 [Example 78, 4-Methoxycarbonylmethoxy-benzoic acid methoxycarbonylmethyl ester] |
